Reference: patent US11987588B2, “Modulators of the beta-3 adrenergic receptor useful for the treatment or prevention of heart failure and disorders related thereto” (Arena Pharmaceuticals, Inc., priority 2017, dated 2024)

These compounds were tested against Beta-3 Adrenergic Receptor (Homo sapiens (Human), UniProt P13945) (assay: Homogeneous Time-Resolved Fluorescence (HTRF) cAMP antagonist assay, IC50 determination). Settings: CHO-K1 cells stably expressing recombinant receptor, isoproterenol at EC90.
Chain of Beta-3 Adrenergic Receptor (P13945 whole entry, species assumed): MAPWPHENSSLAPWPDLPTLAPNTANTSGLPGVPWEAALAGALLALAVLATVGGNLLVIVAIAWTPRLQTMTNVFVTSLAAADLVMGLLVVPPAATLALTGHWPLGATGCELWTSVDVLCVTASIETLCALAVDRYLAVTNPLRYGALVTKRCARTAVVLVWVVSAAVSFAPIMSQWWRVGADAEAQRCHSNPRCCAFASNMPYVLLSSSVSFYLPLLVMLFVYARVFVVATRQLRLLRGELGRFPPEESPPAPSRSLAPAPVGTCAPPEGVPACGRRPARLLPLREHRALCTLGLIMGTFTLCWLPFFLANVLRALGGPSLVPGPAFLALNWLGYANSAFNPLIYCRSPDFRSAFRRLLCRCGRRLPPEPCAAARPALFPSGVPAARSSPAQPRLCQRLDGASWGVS
Assay type: cell-based
Procedure, shortened: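 In this functional readout, recombinant CHO-K1 cells received compound, then isoproterenol at its EC90. After 1 h at room temperature, cAMP levels were determined by HTRF using an on-plate standard curve, and IC50 values were fitted.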
Work on `CNS(=O)(=O)c1cccc(OC[C@@H](O)CN[C@@H]2COC3(CCN(S(=O)(=O)c4cccc(-c5cc[nH]n5)c4)CC3)C2)c1` [Compound 295, 3-((S)-3-((S)-8-(3-(1H-pyrazol-3-yl)phenylsulfonyl)-1-oxa-8-azaspiro[4.5]decan-3-ylamino)-2-hydroxypropoxy)-N-methylbenzenesulfonamide] yielded an IC50 of 7.22 nM.
Compound `CNS(=O)(=O)c1cccc(OC[C@@H](O)CNC2COC3(CCN(S(=O)(=O)c4cccc(-c5ccc(OCCCN(C)C)nc5)c4)CC3)C2)c1` (stereo partly drawn) [Compound 372, 3-((2S)-3-(8-(3-(6-(3-(dimethylamino)propoxy)pyridin-3-yl)phenylsulfonyl)-1-oxa-8-azaspiro[4.5]decan-3-ylamino)-2-hydroxypropoxy)-N-methylbenzenesulfonamide] has an IC50 of 41.8 nM.
In the case of `CNS(=O)(=O)c1cccc(OC[C@@H](O)CNC2COC3(CCN(S(=O)(=O)c4cccc(Oc5ccc(C(F)(F)F)cc5)c4)CC3)C2)c1` (stereo partly drawn) [Compound 161, 3-((2S)-2-hydroxy-3-(8-(3-(4-(trifluoromethyl)phenoxy)phenylsulfonyl)-1-oxa-8-azaspiro[4.5]decan-3-ylamino)propoxy)-N-methylbenzenesulfonamide], the IC50 is reported as 83.7 nM.
With `CNS(=O)(=O)c1cccc(OC[C@@H](O)CNC2COC3(CCN(S(=O)(=O)c4ccc(F)cc4Cl)CC3)C2)c1` (stereo partly drawn) [Compound 200, 3-((2S)-3-(8-(2-chloro-4-fluorophenylsulfonyl)-1-oxa-8-azaspiro[4.5]decan-3-ylamino)-2-hydroxypropoxy)-N-methylbenzenesulfonamide] the IC50 was 22.2 nM.
In the case of `CNS(=O)(=O)c1cccc(OC[C@@H](O)CNC2COC3(CCN(S(=O)(=O)c4c(C)nn(-c5ccccc5)c4C)CC3)C2)c1` (stereo partly drawn) [Compound 261, 3-((2S)-3-(8-(3,5-dimethyl-1-phenyl-1H-pyrazol-4-ylsulfonyl)-1-oxa-8-azaspiro[4.5]decan-3-ylamino)-2-hydroxypropoxy)-N-methylbenzenesulfonamide], the IC50 is reported as 47.5 nM.
In the case of `CNS(=O)(=O)c1cccc(OC[C@@H](O)CN[C@@H]2COC3(CCN(S(=O)(=O)c4ccc(OC)c(-c5ccc(C6(N)CC6)cc5)c4)CC3)C2)c1` [Compound 463, 3-((S)-3-((S)-8-(4′-(1-aminocyclopropyl)-6-methoxybiphenyl-3-ylsulfonyl)-1-oxa-8-azaspiro[4.5]decan-3-ylamino)-2-hydroxypropoxy)-N-methylbenzenesulfonamide], the IC50 is reported as 24.3 nM.
Compound `CNS(=O)(=O)c1cccc(OC[C@@H](O)CNC2COC3(CCN(S(=O)(=O)c4cc(OC)cnc4C)CC3)C2)c1` (stereo partly drawn) [Compound 397, 3-((2S)-2-hydroxy-3-(8-(5-methoxy-2-methylpyridin-3-ylsulfonyl)-1-oxa-8-azaspiro[4.5]decan-3-ylamino)propoxy)-N-methylbenzenesulfonamide] has an IC50 of 115 nM.
`CNS(=O)(=O)c1cccc(OC[C@@H](O)CNC2COC3(CCN(S(=O)(=O)c4ccc(-c5ccc(CN)cc5)cc4)CC3)C2)c1` (stereo partly drawn) [Compound 382, 3-((2S)-3-(8-(4′-(aminomethyl)biphenyl-4-ylsulfonyl)-1-oxa-8-azaspiro[4.5]decan-3-ylamino)-2-hydroxypropoxy)-N-methylbenzenesulfonamide] was tested, and the IC50 was 21 nM.
For `CNS(=O)(=O)c1cccc(OC[C@@H](O)CNC2COC3(CCN(S(=O)(=O)c4cc(Br)cc5c4OCC5)CC3)C2)c1` (stereo partly drawn) [Compound 260, 3-((2S)-3-(8-(5-bromo-2,3-dihydrobenzofuran-7-ylsulfonyl)-1-oxa-8-azaspiro[4.5]decan-3-ylamino)-2-hydroxypropoxy)-N-methylbenzenesulfonamide], the IC50 was 20.3 nM.
For `CNS(=O)(=O)c1cccc(OC[C@@H](O)CNC2COC3(CCN(S(=O)(=O)c4ccoc4)CC3)C2)c1` (stereo partly drawn) [Compound 192, 3-((2S)-3-(8-(furan-3-ylsulfonyl)-1-oxa-8-azaspiro[4.5]decan-3-ylamino)-2-hydroxypropoxy)-N-methylbenzenesulfonamide], the IC50 was 28.3 nM.
Compound `CNS(=O)(=O)c1cccc(OC[C@@H](O)CNC2COC3(CCN(S(=O)(=O)c4cccc(C#N)c4)CC3)C2)c1` (stereo partly drawn) [Compound 32, 3-((2S)-3-(8-(3-cyanophenylsulfonyl)-1-oxa-8-azaspiro[4.5]decan-3-ylamino)-2-hydroxypropoxy)-N-methylbenzenesulfonamide] has an IC50 of 16.6 nM.
Work on `COCCNS(=O)(=O)c1cccc(OC[C@@H](O)CN[C@H]2COC3(CCN(S(=O)(=O)c4cnc5c(c4)N(C)CCO5)CC3)C2)c1` [Compound 459, 3-((S)-2-hydroxy-3-((R)-8-(1-methyl-2,3-dihydro-1H-pyrido[2,3-b][1,4]oxazin-7-ylsulfonyl)-1-oxa-8-azaspiro[4.5]decan-3-ylamino)propoxy)-N-(2-methoxyethyl)benzenesulfonamide] yielded an IC50 of 160 nM.
For `CNS(=O)(=O)c1cccc(OC[C@@H](O)CNC2COC3(CCN(S(=O)(=O)c4c(F)cccc4F)CC3)C2)c1` (stereo partly drawn) [Compound 156, 3-((2S)-3-(8-(2,6-difluorophenylsulfonyl)-1-oxa-8-azaspiro[4.5]decan-3-ylamino)-2-hydroxypropoxy)-N-methylbenzenesulfonamide], the IC50 was 25.4 nM.
For `O=S(=O)(NC[C@H](O)CO)c1cccc(OC[C@@H](O)CNC2COC3(CCN(S(=O)(=O)c4ccc5ccccc5c4)CC3)C2)c1` (stereo partly drawn) [Compound 166, N—((S)-2,3-dihydroxypropyl)-3-((2S)-2-hydroxy-3-(8-(naphthalen-2-ylsulfonyl)-1-oxa-8-azaspiro[4.5]decan-3-ylamino)propoxy)benzenesulfonamide], the IC50 was 143 nM.
For `CNS(=O)(=O)c1cccc(OC[C@@H](O)CN[C@H]2COC3(CCN(c4nc(C)cc(C)n4)CC3)C2)c1` [Compound 577, 3-((S)-3-((R)-8-(4,6-dimethylpyrimidin-2-yl)-1-oxa-8-azaspiro[4.5]decan-3-ylamino)-2-hydroxypropoxy)-N-methylbenzenesulfonamide], the IC50 was 102 nM.
For `CCOc1nc2c(cc1S(=O)(=O)N1CCC3(CC1)CC(NC[C@H](O)COc1cccc(S(=O)(=O)NC)c1)CO3)N(C)CCO2` (stereo partly drawn) [Compound 401, 3-((2S)-3-(8-(6-ethoxy-1-methyl-2,3-dihydro-1H-pyrido[2,3-b][1,4]oxazin-7-ylsulfonyl)-1-oxa-8-azaspiro[4.5]decan-3-ylamino)-2-hydroxypropoxy)-N-methylbenzenesulfonamide], the IC50 was 25.3 nM.
`NS(=O)(=O)c1cccc(OC[C@@H](O)CN[C@H]2COC3(CCN(S(=O)(=O)c4c[nH]c5cc(F)ccc5c4=O)CC3)C2)c1` [Compound 555, 3-((S)-3-((R)-8-(7-fluoro-4-oxo-1,4-dihydroquinolin-3-ylsulfonyl)-1-oxa-8-azaspiro[4.5]decan-3-ylamino)-2-hydroxypropoxy)benzenesulfonamide] showed an IC50 of 21.3 nM.
In the case of `CNS(=O)(=O)c1cccc(OC[C@@H](O)CN[C@H]2COC3(CCN(S(=O)(=O)c4cnc5c(c4)N(C)C[C@H](C)O5)CC3)C2)c1` [Compound 472, 3-((S)-3-((R)-8-((S)-1,3-dimethyl-2,3-dihydro-1H-pyrido[2,3-b][1,4]oxazin-7-ylsulfonyl)-1-oxa-8-azaspiro[4.5]decan-3-ylamino)-2-hydroxypropoxy)-N-methylbenzenesulfonamide], the IC50 is reported as 35.4 nM.
Compound `CN(C1CC1)S(=O)(=O)c1cccc(OC[C@@H](O)CNC2COC3(CCN(S(=O)(=O)c4ccc5ccccc5c4)CC3)C2)c1` (stereo partly drawn) [Compound 90, N-cyclopropyl-3-((2S)-2-hydroxy-3-(8-(naphthalen-2-ylsulfonyl)-1-oxa-8-azaspiro[4.5]decan-3-ylamino)propoxy)-N-methylbenzenesulfonamide] has an IC50 of 49.2 nM.
For `CNS(=O)(=O)c1cccc(OC[C@@H](O)CNC2COC3(CCN(S(=O)(=O)c4ccc(OC)c(OC)c4)CC3)C2)c1` (stereo partly drawn) [Compound 153, 3-((2S)-3-(8-(3,4-dimethoxyphenylsulfonyl)-1-oxa-8-azaspiro[4.5]decan-3-ylamino)-2-hydroxypropoxy)-N-methylbenzenesulfonamide], the IC50 was 43.6 nM.
With `CNS(=O)(=O)c1cccc(OC[C@@H](O)CN[C@@H]2COC3(CCN(S(=O)(=O)c4cccc(-c5cccnc5)c4)CC3)C2)c1` [Compound 284, 3-((S)-2-hydroxy-3-((S)-8-(3-(pyridin-3-yl)phenylsulfonyl)-1-oxa-8-azaspiro[4.5]decan-3-ylamino)propoxy)-N-methylbenzenesulfonamide] the IC50 was 11.6 nM.
`CNS(=O)(=O)c1cccc(OC[C@@H](O)CNC2COC3(CCN(S(=O)(=O)c4cc(-c5ccc(CN)cc5)ccc4OC)CC3)C2)c1` (stereo partly drawn) [Compound 357, 3-((2S)-3-(8-(4′-(aminomethyl)-4-methoxybiphenyl-3-ylsulfonyl)-1-oxa-8-azaspiro[4.5]decan-3-ylamino)-2-hydroxypropoxy)-N-methylbenzenesulfonamide] gave an IC50 of 15.7 nM.
Compound `CCNS(=O)(=O)c1cccc(OC[C@@H](O)CNC2COC3(CCN(S(=O)(=O)c4ccc5c(c4)N(C)CCO5)CC3)C2)c1` (stereo partly drawn) [Compound 234, N-ethyl-3-((2S)-2-hydroxy-3-(8-(4-methyl-3,4-dihydro-2H-benzo[b][1,4]oxazin-6-ylsulfonyl)-1-oxa-8-azaspiro[4.5]decan-3-ylamino)propoxy)benzenesulfonamide] has an IC50 of 52.6 nM.
`CNS(=O)(=O)c1cccc(OC[C@@H](O)CNC2COC3(CCN(S(=O)(=O)c4cc(F)ccc4F)CC3)C2)c1` (stereo partly drawn) [Compound 205, 3-((2S)-3-(8-(2,5-difluorophenylsulfonyl)-1-oxa-8-azaspiro[4.5]decan-3-ylamino)-2-hydroxypropoxy)-N-methylbenzenesulfonamide] was tested, and the IC50 was 14 nM.
`CNS(=O)(=O)c1cccc(OC[C@@H](O)CNC2COC3(CCN(S(=O)(=O)c4cccnc4N(C)C)CC3)C2)c1` (stereo partly drawn) [Compound 441, 3-((2S)-3-(8-(2-(dimethylamino)pyridin-3-ylsulfonyl)-1-oxa-8-azaspiro[4.5]decan-3-ylamino)-2-hydroxypropoxy)-N-methylbenzenesulfonamide] was tested, and the IC50 was 81.1 nM.
Work on `CNS(=O)(=O)c1cccc(OC[C@@H](O)CNC2COC3(CCN(S(=O)(=O)c4cn(C)nc4C(F)(F)F)CC3)C2)c1` (stereo partly drawn) [Compound 152, 3-((2S)-2-hydroxy-3-(8-(1-methyl-3-(trifluoromethyl)-1H-pyrazol-4-ylsulfonyl)-1-oxa-8-azaspiro[4.5]decan-3-ylamino)propoxy)-N-methylbenzenesulfonamide] yielded an IC50 of 90.7 nM.
